Assay results published in paper PMC11224111, “Optimizing the pharmacokinetics of an ^211At-labeled RGD peptide with an albumin-binding moiety via the administration of an albumin-binding inhibitor” (European Journal of Nuclear Medicine and Molecular Imaging, 2024).

Legend:
[1] = test system: U-87 MG tumor-bearing mice; assay: Therapeutic experiments in U-87 MG tumor-bearing mice; assay type: in vivo; conditions: for Relative body weight / Relative tumor volume: 1.85 MBq with IPBA; for Relative body weight: relative to initial body weight; for Relative tumor volume: relative to initial tumor volume
Experimental: To prepare tumor-bearing mice, 5 × 10^6 of U-87 MG cells were subcutaneously inoculated into the right shoulder of 4-week-old female BALB/c nude mice (13–15 g, Japan SLC, Inc.) as previously reported. At approximately 10-day postinoculation of U-87 MG cells, they were used for each experiment after tumor size reached 0.3–0.5 cm^3.
U-87 MG tumor-bearing mice were divided into three groups, [^211At]1 (1.85 MBq) (n = 6) injected group, only […] (1.85 MBq) and IPBA (n = 6) injected group, and vehicle and IPBA (n = 3) injected group as a control group. In IPBA injected group, it was administered at 10 molar equivalent of blood albumin at 1-h postinjection of [^211At]1 or vehicle. Tumor volume and body weight of mice were monitored 5 or 6 times weekly. Tumor size was measured with a slide caliper, and tumor volume was calculated using a formula: volume = 4/3 π (1/2 length × 1/2 width × 1/2 height). Tumor volume and body weight compared to the values on the day of treatment (relative tumor volume). The mice were euthanized humanely when body weight was less than 80% at baseline (day 0) or when the tumor weight reached more than 10% of body weight as the endpoint.

[2] = test system: U-87 MG tumor-bearing mice; design: method as in PMID 37819452; conditions: 370 and 925 kBq without IPBA; cited from earlier work
[3] = mouse, in vivo; cited from earlier work

Question: With “Ga-DOTA-K([^211At]APBA)-c(RGDfK) [[^211At]1]” as the substance, how does the Body weight loss ([1]; 1.85 MBq followed by IPBA, temporary, recovered) read?
Answer: less than 10%

Question: What about the Tumor growth ([1]; 1.85 MBq followed by IPBA, vs control group) of the same substance?
Answer: significantly more inhibited than it was in the control group

Question: And the Relative body weight ([1]; day 0 after injection)?
Answer: 1.00 (0.00)

Question: And the Relative tumor volume ([1]; day 0 after injection)?
Answer: 1.00 (0.00)

Question: What about the Relative body weight ([1]; day 1 after injection) of the same substance?
Answer: 0.99 (0.02)

Question: What about the Relative tumor volume ([1]; day 1 after injection) of the same substance?
Answer: 1.14 (0.11)

Question: And the Relative body weight ([1]; day 2 after injection)?
Answer: 0.99 (0.01)

Question: And the Relative tumor volume ([1]; day 2 after injection)?
Answer: 1.19 (0.09)

Question: What about the Relative body weight ([1]; day 3 after injection) of the same substance?
Answer: 0.97 (0.03)

Question: What about the Relative tumor volume ([1]; day 3 after injection) of the same substance?
Answer: 1.23 (0.15)

Question: What about the Relative body weight ([1]; day 4 after injection) of the same substance?
Answer: 0.96 (0.02)

Question: And the Relative tumor volume ([1]; day 4 after injection)?
Answer: 1.21 (0.18)

Question: And the Relative body weight ([1]; day 6 after injection)?
Answer: 0.93 (0.04)

Question: And the Relative tumor volume ([1]; day 6 after injection)?
Answer: 1.24 (0.17)

Question: And the Relative body weight ([1]; day 7 after injection)?
Answer: 0.94 (0.03)

Question: And the Relative tumor volume ([1]; day 7 after injection)?
Answer: 1.25 (0.19)

Question: What about the “Time within which all mice died” value ([1]; 1.85 MBq without IPBA) of the same substance?
Answer: ≤ 9 days

Question: What about the “Weight loss and death” value [2] of the same substance?
Answer: a little weight loss, but no mice died

Question: With “Ga-DOTA-K([^125I]IPBA)-c(RGDfK) [[^125I]2]” as the substance, how does the “Radioactivity, Blood” value [3] read?
Answer: 11.80 (0.75) % injected activity per gram

Question: And the “Radioactivity, Bone” value [3]?
Answer: 1.50 (0.26) % injected activity per gram

Question: What about the “Radioactivity, Brain” value [3] of the same substance?
Answer: 0.29 (0.03) % injected activity per gram

Question: And the “Radioactivity, Heart” value [3]?
Answer: 3.81 (0.18) % injected activity per gram

Question: And the “Radioactivity, Kidney” value [3]?
Answer: 3.70 (0.65) % injected activity per gram

Question: And the “Radioactivity, L. intestine” value [3]?
Answer: 1.20 (0.25) % injected activity per gram

Question: And the “Radioactivity, Liver” value [3]?
Answer: 1.96 (0.18) % injected activity per gram

Question: And the “Radioactivity, Lung” value [3]?
Answer: 5.60 (0.52) % injected activity per gram

Question: What about the “Radioactivity, Muscle” value [3] of the same substance?
Answer: 1.32 (0.16) % injected activity per gram

Question: And the “Radioactivity, Neck” value [3]?
Answer: 0.09 (0.02) % injected activity

Question: And the “Radioactivity, Pancreas” value [3]?
Answer: 2.05 (0.25) % injected activity per gram

Question: What about the “Radioactivity, S. intestine” value [3] of the same substance?
Answer: 1.58 (0.31) % injected activity per gram

Question: What about the “Radioactivity, Spleen” value [3] of the same substance?
Answer: 1.61 (0.12) % injected activity per gram

Question: What about the “Radioactivity, Stomach” value [3] of the same substance?
Answer: 0.87 (0.11) % injected activity
